For the assay, the target named is T1, Na^+ /Ca^2+ exchange system (Canis lupus familiaris, UniProt P23685).
T1 construct: Sarcolemmal vesicles which were prepared from the removed dog ventricular muscles; from tissue; host or cells: dog ventricular muscle, sarcolemmal vesicles
Put plainly: Inhibitory action on Na+/Ca2+ exchange system using myosarcolemmal vesicles (45Ca uptake). Format: biochemical. The note with it: sarcolemmal vesicles from dog ventricular muscles; Na+-loaded; 20 μM [45Ca]-calcium chloride, pH 7.4, 10 seconds uptake. On the procedure: Inhibitors Action on a Na^+ /Ca^2+ Exchange System using Myosarcolemmal Vesicles Sarcolemmal vesicles which were prepared from the removed dog ventricular muscles by referring to the method described in the literature (L. R. Jones, Methods, Enzymol., 1988, 157, pp. 85) were used. A Na^+ /Ca^2+ exchange activity using the sarcolemmal vesicles was measured by referring to the method described in the literature (K. D. Philipson, et al., J. Biol. Chem., 1980, 255, pp. 6880). First, the sarcolemmal vesicles were suspended in a sodium-containing solution [160 mM sodium chloride, 20 mM […] (pH 7.4)] to make up to a protein concentration of 1.5 mg/ml, and allowed to stand for an hour to load Na^+ in the sarcolemmal vesicles. To 2.5 μl of the sarcolemmal vesicles was added 125 μl of a [^45 Ca]-calcium chloride solution [20 μM [^45 Ca]-calcium chloride, 160 mM potassium chloride and 20 mM Mops-Tris (pH 7.4)], and after 10 seconds, 900 μl of an ice-cooled lanthanum chloride solution [10 mM lanthanum chloride, 160 mM potassium chloride and 20 mM Mops-Tris (pH 7.4)] was added. The sarcolemmal vesicles were recovered on a nitrocellulose filter by suction filtration and washed three times with 900 μl of a lanthanum chloride solution. The concentration of Ca^2+ uptake in the sarcolemmal vesicles was determined by measuring a ^45 Ca radioactivity by a scintillator. In addition, a Na^+ /Ca^2+ exchange activity-independent Ca^2+ uptake in the sarcolemmal vesicles was determined by carrying out the same procedure using a potassium-containing solution [160 mM potassium chloride, 20 mM Tris-hydrochloric acid (pH 7.4)] instead of the sodium-containing solution. The test compound was used as a dimethyl sulfoxide solution thereof, and its inhibitory effect was evaluated in comparison with the vehicle-treatedgroup. The IC50 value was determined from a dose inhibition curve of the test compound by using the minimum square method.

Structures are written as SMILES. Structures can show the parent of a compound that is named as a salt.

What is called IC50 is the point on the concentration scale where inhibition reaches its midpoint. Turning to `COc1ccc(Oc2ccc(OCc3ccccc3)cc2)c(N)c1` [Example 1, 2-[4-(Benzyloxy)phenoxy]-5-methoxyaniline hydrochloride], the IC50 was determined as 1100 nM. The same measure for `CCOc1ccc(Oc2ccc(OCc3ccccc3)cc2)c(N)c1` [Example 17, 2-[4-(Benzyloxy)phenoxy-5-ethoxyaniline hydrochloride]: 2500 nM; for `Nc1cccc(N)c1Oc1ccc(OCc2ccccc2)cc1` [Example 14, 2-[4-(Benzyloxy)phenoxy]-1,3-phenylenediamine dihydrochloride]: 8200 nM. With `COC(=O)COc1ccc(Oc2ccc(OCc3ccccc3)cc2)c(N)c1` [Example 20, Methyl 3-amino-4-[4-(benzyloxy)-phenoxy]phenoxyacetate hydrochloride], the IC50 worked out at 2800 nM. The figure for `NC(=O)COc1ccc(Oc2ccc(OCc3ccccc3)cc2)c(N)c1` [Example 19, 3-Amino-4-[4-(benzyloxy)phenoxy]phenoxy-acetamide hydrochloride] is 14000 nM.

Values taken from US6156801A, “2-phenoxyaniline derivatives” (Taisho Pharmaceutical Co., Ltd., priority 1997, dated 2000).
